Source: patent US10369138B2, “Monobactam organic compounds for the treatment of bacterial infections” (Novartis AG, priority 2014, dated 2019)
In brackets after ≈: the same amount, converted by molar mass.

Assays:
Format in all cases: cell-based
[1] = tested on: E. coli NB27273-CDY0030 (SHV12); assay: MIC by broth microdilution, isogenic E. coli strain expressing SHV12; conditions: Escherichia coli, read-out: Strain 3 MIC
Description: (§1) Bacterial isolates were cultivated from −70° C. frozen stocks by two consecutive overnight passages at 35° C. in ambient air on 5% blood agar (Remel, Lenexa, Kans.). Quality control and P. aeruginosa ATCC 27853) is from the American Type Culture Collection (ATCC; Rockville, Md.) and PAO1 was received from Dr. K. Poole.
(§2) Strain NB27273 (BW25113 pspB::Km^r) was obtained from the Keio transposon insertion collection. The strain has the pspB gene replaced by a kanamycin resistance marker (BW25113 pspB::Km^r). This strain was cured of the transposon in pspB via FLP recombinase using published methodology. The resulting strain, BW25113 pspB, was used as a host for multicopy vectors expressing key β-lactamases. Multicopy plasmids directing constitutive expression of β-lactamases were established as follows: Synthetic, codon optimized genes encoding E. coli KPC2 and SHV12 β-lactamases were made by DNA2.0 (Palo Alto, Calif.). Each of the synthetic fragments were designed to contain NotI and NcoI restriction sites at their termini, allowing ligation into a NotI/NcoI digested pET28a(+) derivative for protein expression. […] The codon optimized nucleotide sequences and relevant primer recognition information is shown below:
(§3) The PCR products were then digested with XhoI and EcoRI and ligated into similarly digested plasmid pAH63-pstS(BlaP). Plasmid pAH63-pstS(BlaP) is a derivative of plasmid pAH63 (J Bacteriol: 183(21): 6384-6393) made by cloning the TEM-1 (bla) promoter and signal peptide encoding region from plasmid pBAD (J Bacteriol. 1995 July 177(14):4121-30) into plasmid pAH63. This fragment was PCR amplified from pBAD using primer pair E192 (ttcaCTGCAGtgaacgttgcgaagcaacggC) (SEQ ID NO:13) and E194 (TCGAggatcctcgagagcaaaaacaggaaggcaaaatgccg) (SEQ ID NO:14), digested with PstI and BamHI and inserted into similarly digested plasmid pAH63. Therefore, expression of β-lactamases from pAH63-pstS(BlaP) based constructs is constitutive and the signal sequence is provided to direct these proteins to the periplasm. […] To accomplish this, the inserts encompassing the β-lactamase genes, with the associated TEM promoter and signal sequences, were PCR amplified from their corresponding vectors using primer E269 (ccgTCTAGAcggatggcctttttgcgtttc) (SEQ ID NO:15) and E202 (aatcGAATTCttactgaccattaacgcccaagc) (SEQ ID NO:16) for the KPC2 construct and E204 (aatcGAATTCttaacgctgccagtgctcaatc) (SEQ ID NO:17) for the SHV12 construct. These fragments were then digested with XbaI and EcoRI, and each was inserted into pBAD18-kan that had been digested with the same enzymes to generate a pair of multicopy vectors expressing KPC2 and SHV12 respectively. These vectors were transformed into BW25113 pspB to generate strains NB27273-CDY0033 (expressing KPC2) and NB27273-CDY0030 (expressing SHV12). The pBAD18-kan vector also contains the TEM promoter region and signal sequence, (but lacks any intact β-lactamase genes) and was transformed into BW25113 pspB using standard protocols to generate the control strain NB27273-CDY0026. […] Susceptibility Testing
(§4) Minimal Inhibitory Concentrations (MICs) were determined by the broth microdilution method in accordance with Clinical and Laboratories Institute (CLSI) guidelines. In brief, fresh overnight bacterial cultures were suspended in sterile saline, and adjusted to a 0.5 McFarland turbidity standard. Bacterial suspensions were then diluted in cation adjusted Mueller-Hinton Broth (MHB II; BBL) to yield a final inoculum of approximately 5×10^5 colony-forming units (CFU)/mL. A master plate of antibiotics was prepared at a concentration equivalent to hundred-fold the highest desired final concentration in 100% dimethyl sulfoxide (DMSO). The master antibiotic plate was then diluted by serial twofold dilution with a multichannel pipette. The resulting dilution series of compounds were diluted 1:10 with sterile water leading to a 10% DMSO final concentration.

[2] = tested on: E. coli NB27273-CDY0026 (parent); assay: MIC by broth microdilution, isogenic E. coli parent strain; conditions: Escherichia coli, read-out: Strain 1 MIC
Description: as §1, §2, §3, §4

[3] = tested on: E. coli NB27273-CDY0033 (KPC2); assay: MIC by broth microdilution, isogenic E. coli strain expressing KPC2; conditions: Escherichia coli, read-out: Strain 2 MIC
Description: as §1, §2, §3, §4

[4] = tested on: E. coli containing KPC-2; assay: MIC by broth microdilution, E. coli containing KPC-2 (Ec KPC2 Iso); conditions: Escherichia coli, read-out: Ec KPC2 Iso (MIC), E. coli containing KPC-2 (carbapenemase from Klebsiella pneumoniae)
Procedure, shortened: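 Host E. coli BW25113 pspB carrying multicopy pBAD18-kan plasmid with constitutive TEM-promoter KPC-2 expression (periplasmic signal sequence); broth microdilution per CLSI in cation-adjusted Mueller-Hinton broth, inoculum ~5×10^5 CFU/mL, compounds twofold serially diluted from DMSO masters (10% DMSO in dilution series added).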

[5] = tested on: E. coli strain 25922; assay: MIC by broth microdilution, E. coli strain 25922; conditions: Escherichia coli, 25922, E. coli strain 25922; read-out: Ec 25922 (MIC)
Procedure, shortened: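 CLSI broth microdilution in cation-adjusted Mueller-Hinton broth, inoculum about 5×10^5 CFU/mL, 10% DMSO from the diluted series, 20 h at 35-37° C. MIC is the lowest concentration preventing visible growth, read by eye and at 600 nm.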

Work on `N=C(N)NCc1cn(C[C@@H]2[C@H](NC(=O)/C(=N\OC3(C(=O)O)CC3)c3csc(N)n3)C(=O)N2S(=O)(=O)O)nn1` [Example 28, 1-(((Z)-(1-(2-aminothiazol-4-yl)-2-(((2R,3S)-2-((4-(guanidinomethyl)-1H-1,2,3-triazol-1-yl)methyl)-4-oxo-1-sulfoazetidin-3-yl)amino)-2-oxoethylidene)amino)oxy)-cyclopropanecarboxylic acid] yielded an MIC [1] of 0.5 µg/mL (≈ 0.875 µM), an MIC [2] of at most 0.06 µg/mL and an MIC [3] of at most 0.06 µg/mL.

`Nc1nc(/C(=N/OC2(C(=O)O)CC2)C(=O)N[C@@H]2C(=O)N(S(=O)(=O)O)[C@@H]2CN2CCOC2=O)cs1` [Example 22, 1-(((Z)-(1-(2-aminothiazol-4-yl)-2-oxo-2-(((3S,4R)-2-oxo-4-((2-oxooxazolidin-3-yl)methyl)-1-sulfoazetidin-3-yl)amino)ethylidene)amino)oxy)cyclopropanecarboxylic acid] showed an MIC [4] of 0.125 µg/mL (≈ 0.241 µM), an MIC [1] of 0.5 µg/mL (≈ 0.964 µM) and an MIC [2] of at most 0.06 µg/mL. It also gave an MIC [3] of 0.125 µg/mL (≈ 0.241 µM) and an MIC [5] of 0.25 µg/mL (≈ 0.482 µM).

Work on `CC(C)(O/N=C(\C(=O)N[C@@H]1C(=O)N(S(=O)(=O)O)[C@@H]1Cn1nnc(CN)n1)c1csc(N)n1)C(=O)O` [Example 4, 2-(((Z)-(2-(((2R,3S)-2-((5-(aminomethyl)-2H-tetrazol-2-yl)methyl)-4-oxo-1-sulfoazetidin-3-yl)amino)-1-(2-aminothiazol-4-yl)-2-oxoethylidene)amino)oxy)-2-methylpropanoic acid] yielded an MIC [4] of 8 µg/mL (≈ 15 µM), an MIC [1] of 2 µg/mL (≈ 3.76 µM) and an MIC [2] of 0.5 µg/mL (≈ 0.939 µM). For the same molecule, the MIC [3] was 8 µg/mL (≈ 15 µM) and the MIC [5] was 1 µg/mL (≈ 1.88 µM).

Work on `N=C(NC1CCNCC1)c1ccc(OC[C@H](O/N=C(\C(=O)N[C@@H]2C(=O)N(S(=O)(=O)O)[C@@H]2Cn2cncn2)c2csc(N)n2)C(=O)O)cc1` [Example 31, (S)-2-(((Z)-(2-(((2R,3S)-2-((1H-1,2,4-triazol-1-yl)methyl)-4-oxo-1-sulfoazetidin-3-yl)amino)-1-(2-aminothiazol-4-yl)-2-oxoethylidene)amino)oxy)-3-(4-(N-(piperidin-4-yl)carbamimidoyl)-phenoxy)propanoic acid] yielded an MIC [4] of 0.25 µg/mL (≈ 0.354 µM), an MIC [1] of 0.5 µg/mL (≈ 0.708 µM) and an MIC [2] of 0.125 µg/mL (≈ 0.177 µM). It also gave an MIC [3] of 0.25 µg/mL (≈ 0.354 µM) and an MIC [5] of 0.25 µg/mL (≈ 0.354 µM).

`C[C@H]1[C@H](NC(=O)/C(=N\OC(C)(C)C(=O)O)c2csc(N)n2)C(=O)N1S(=O)(=O)O` [compound 1, reference compound] gave an MIC [1] of over 32 µg/mL.

Work on `NC(=O)OC[C@@H]1[C@H](NC(=O)/C(=N\OCC(=O)O)c2csc(N)n2)C(=O)N1S(=O)(=O)O` [compound 2, reference compound] yielded an MIC [1] of over 32 µg/mL, an MIC [2] of 0.125 µg/mL (≈ 0.268 µM) and an MIC [3] of 1 µg/mL (≈ 2.14 µM).

With `CC1(C)[C@H](NC(=O)/C(=N\OCc2cc(=O)c(O)cn2O)c2csc(N)n2)C(=O)N1OS(=O)(=O)O` [compound 3, reference compound] the MIC [1] was over 32 µg/mL, the MIC [2] was 0.25 µg/mL (≈ 0.482 µM) and the MIC [3] was 0.5 µg/mL (≈ 0.964 µM).

For `CC1(C)[C@H](NC(=O)/C(=N\O[C@@H](COc2ccc(C(=N)NC3CCNCC3)cc2)C(=O)O)c2csc(N)n2)C(=O)N1OS(=O)(=O)O` [compound 4, reference compound], the MIC [1] was 32 µg/mL (≈ 47.9 µM), the MIC [2] was at most 0.06 µg/mL and the MIC [3] was 0.25 µg/mL (≈ 0.374 µM).

In the case of `CC(C)(O/N=C(\C(=O)N[C@@H]1C(=O)N(S(=O)(=O)O)[C@@H]1Cn1ccccc1=O)c1csc(N)n1)C(=O)O` [Example 15, 2-(((Z)-(1-(2-aminothiazol-4-yl)-2-oxo-2-(((3S,4R)-2-oxo-4-((2-oxopyridin-1(2H)-yl)methyl)-1-sulfoazetidin-3-yl)amino)ethylidene)amino)oxy)-2-methylpropanoic acid], the MIC [4] is reported as 8 µg/mL (≈ 15.1 µM) and the MIC [5] is reported as 16 µg/mL (≈ 30.3 µM).

`CC(C)(O/N=C(\C(=O)N[C@@H]1C(=O)N(S(=O)(=O)O)[C@@H]1CN1CCOC1=O)c1csc(N)n1)C(=O)O` [Example 2, 2-(((Z)-(1-(2-aminothiazol-4-yl)-2-oxo-2-(((3S,4R)-2-oxo-4-((2-oxooxazolidin-3-yl)methyl)-1-sulfoazetidin-3-yl)amino)ethylidene)amino)oxy)-2-methylpropanoic acid] gave an MIC [4] of 0.5 µg/mL (≈ 0.961 µM) and an MIC [5] of 1 µg/mL (≈ 1.92 µM).

Work on `N=C(NC1CNC1)c1ccc(OC[C@H](O/N=C(\C(=O)N[C@@H]2C(=O)N(S(=O)(=O)O)[C@@H]2Cn2cncn2)c2csc(N)n2)C(=O)O)cc1` [Example 68, (S)-2-(((Z)-(2-(((2R,3S)-2-((1H-1,2,4-triazol-1-yl)methyl)-4-oxo-1-sulfoazetidin-3-yl)amino)-1-(2-aminothiazol-4-yl)-2-oxoethylidene)amino)oxy)-3-(4-(N-(azetidin-3-yl)carbamimidoyl)phenoxy)propanoic acid] yielded an MIC [4] of 0.25 µg/mL (≈ 0.369 µM) and an MIC [5] of 0.25 µg/mL (≈ 0.369 µM).

With `CC(C)(O/N=C(\C(=O)N[C@@H]1C(=O)N(S(=O)(=O)O)[C@@H]1Cn1ncnc1CNC(=N)N)c1csc(N)n1)C(=O)O` [Example 13, 2-(((Z)-(1-(2-aminothiazol-4-yl)-2-(((2R,3S)-2-((5-(guanidinomethyl)-1H-1,2,4-triazol-1-yl)methyl)-4-oxo-1-sulfoazetidin-3-yl)amino)-2-oxoethylidene)amino)oxy)-2-methylpropanoic acid] the MIC [4] was 32 µg/mL (≈ 55.8 µM) and the MIC [5] was 16 µg/mL (≈ 27.9 µM).

Work on `CC(C)(O/N=C(\C(=O)N[C@@H]1C(=O)N(S(=O)(=O)O)[C@@H]1CN1CCCCC1=O)c1csc(N)n1)C(=O)O` [Example 14, 2-(((Z)-(1-(2-aminothiazol-4-yl)-2-oxo-2-(((3S,4R)-2-oxo-4-((2-oxopiperidin-1-yl)methyl)-1-sulfoazetidin-3-yl)amino)ethylidene)amino)oxy)-2-methylpropanoic acid] yielded an MIC [4] of 8 µg/mL (≈ 15 µM) and an MIC [5] of 16 µg/mL (≈ 30 µM).

For `CC(C)(O/N=C(\C(=O)N[C@@H]1C(=O)N(S(=O)(=O)O)[C@@H]1CN1CCCC1=O)c1csc(N)n1)C(=O)O` [Example 1, 2-(((Z)-(1-(2-aminothiazol-4-yl)-2-oxo-2-(((3S,4R)-2-oxo-4-((2-oxopyrrolidin-1-yl)methyl)-1-sulfoazetidin-3-yl)amino)ethylidene)amino)oxy)-2-methylpropanoic acid], the MIC [4] was 2 µg/mL (≈ 3.86 µM), the MIC [1] was 2 µg/mL (≈ 3.86 µM) and the MIC [2] was 1 µg/mL (≈ 1.93 µM). It also gave an MIC [3] of 2 µg/mL (≈ 3.86 µM) and an MIC [5] of 16 µg/mL (≈ 30.9 µM).

`CC(C)(O/N=C(\C(=O)N[C@@H]1C(=O)N(S(=O)(=O)O)[C@@H]1Cn1cnc(CNC(=N)N)n1)c1csc(N)n1)C(=O)O` [Example 11, 2-(((Z)-(1-(2-aminothiazol-4-yl)-2-(((2R,3S)-2-((3-(guanidinomethyl)-1H-1,2,4-triazol-1-yl)methyl)-4-oxo-1-sulfoazetidin-3-yl)amino)-2-oxoethylidene)amino)oxy)-2-methylpropanoic acid] was tested, and the MIC [4] was 4 µg/mL (≈ 6.97 µM) and the MIC [5] was 4 µg/mL (≈ 6.97 µM).
